Laboratory results from patent publication US7491723B2, “Alkanol and cycloalkanol-amine derivatives and methods of their use” (Wyeth, priority 2003, dated 2009).
Counter-ions that a name gives are not always drawn.

What follows are compounds tested against T1, human hNET (Homo sapiens, UniProt P23975) (assay: Norepinephrine (NE) uptake assay in MDCK-Net6 cells). Conditions: at 30 μM test compound, [3H]NE uptake.
T1 construct: expressed in transfected cells
Assay type: cell-based

T1 sequence (P23975 whole entry): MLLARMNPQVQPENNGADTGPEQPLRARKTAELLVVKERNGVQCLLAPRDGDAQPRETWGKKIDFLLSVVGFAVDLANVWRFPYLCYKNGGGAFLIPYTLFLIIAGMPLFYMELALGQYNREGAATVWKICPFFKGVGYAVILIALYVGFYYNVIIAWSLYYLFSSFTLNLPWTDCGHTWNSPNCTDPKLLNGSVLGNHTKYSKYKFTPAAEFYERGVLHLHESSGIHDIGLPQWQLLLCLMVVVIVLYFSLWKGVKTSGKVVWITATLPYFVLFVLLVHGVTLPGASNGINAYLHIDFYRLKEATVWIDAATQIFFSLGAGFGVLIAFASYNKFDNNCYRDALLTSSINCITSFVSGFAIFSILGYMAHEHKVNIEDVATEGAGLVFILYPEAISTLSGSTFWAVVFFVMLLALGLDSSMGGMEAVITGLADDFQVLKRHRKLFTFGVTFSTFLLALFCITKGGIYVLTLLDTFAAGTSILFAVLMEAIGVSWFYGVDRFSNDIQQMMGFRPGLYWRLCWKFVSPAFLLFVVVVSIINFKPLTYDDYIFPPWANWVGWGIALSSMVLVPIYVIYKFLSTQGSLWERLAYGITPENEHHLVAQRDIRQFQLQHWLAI

Structure (SMILES) | inhibition at 30 µM [%]
CC1(C)CC(C)(C)CC(O)(C(CN2CCNCC2)c2cccc(Br)c2)C1 (centres unmarked) [Example 87, 1-[1-(3-bromophenyl)-2-piperazin-1-ylethyl]-3,3,5,5-tetramethylcyclohexanol dihydrochloride] | 47
CCC(O)(CC)C(CN1CCN(C)CC1)c1cccc(Cl)c1 (centres unmarked) [Example 94, 2-(3-chlorophenyl)-3-ethyl-1-(4-methylpiperazin-1-yl)pentan-3-ol dihydrochloride] | 71
CC(C)(C)C1CCC(O)(C(CN2CCNCC2)c2cccc(Br)c2)CC1 (centres unmarked) [Example 96, 1-[1-(3-bromophenyl)-2-piperazin-1-ylethyl]-4-tert-butylcyclohexanol dihydrochloride] | 100
CN1CCN(CC(c2cccc(Cl)c2)C2(O)CCC(C(C)(C)C)CC2)CC1 (centres unmarked) [Example 101, 4-tert-butyl-1-[1-(3-chlorophenyl)-2-(4-methylpiperazin-1-yl)ethyl]cyclohexanol dihydrochloride] | 100
OC1(C(CN2CCNCC2)c2cccc(Br)c2)C2CC3CC(C2)CC1C3 (centres unmarked) [Example 107, 2-[1-(3-bromophenyl)-2-piperazin-1-ylethyl]adamantan-2-ol dihydrochloride] | 67

Now from value to compound:

inhibition at 30 µM [%] | Structure (SMILES)
69 | OC1(C(CN2CCNCC2)c2cccc(Br)c2)CCOCC1 (centres unmarked) [Example 103, 4-[1-(3-bromophenyl)-2-piperazin-1-ylethyl]tetrahydro-2H-pyran-4-ol dihydrochloride]
54 | COc1ccc(C(CN2CCNCC2)C2(O)CCOCC2)cc1Br (centres unmarked) [Example 110, 4-[1-(3-bromo-4-methoxyphenyl)-2-piperazin-1-ylethyl]tetrahydro-2H-pyran-4-ol dihydrochloride]

These compounds were tested against T1, human hNET in the same assay as above. Conditions: 1 μM test compound, [3H]NE uptake.
Assay type: cell-based
Experimental: MDCK-Net6 cells, stably transfected with human hNET (Pacholczyk, T., R. D. Blakely, and S. G. Amara, Nature, 1991, 350(6316): p. 350-4) were cultured in growth medium containing high glucose DMEM (Gibco, Cat. No. 11995), 10% FBS (dialyzed, heat-inactivated, US Bio-Technologies, Lot FBD1129HI) and 500 μg/ml G418 (Gibco, Cat. No. 10131). Cells were plated at 300,000/T75 flask and cells were split twice weekly. The JAR cell line (human placental choriocarcinoma) was purchased from ATCC (Cat. No. HTB-144). The cells were cultured in growth medium containing RPMI 1640 (Gibco, Cat. No. 72400), 10% FBS (Irvine, Cat. No. 3000), 1% sodium pyruvate (Gibco, Cat. No. 1136) and 0.25% glucose. Cells were plated at 250,000 cells/T75 flask and split twice weekly. For all assays, cells were plated in Wallac 96-well sterile plates (PerkinElmer, Cat. No. 3983498).
On day 1, cells were plated at 3,000 cells/well in growth medium and maintained in a cell incubator (37° C., 5% CO2). On day 2, growth medium was replaced with 200 μl of assay buffer (25 mM HEPES; 120 mM NaCl; 5 mM KCl; 2.5 mM CaCl2; 1.2 mM MgSO4; 2 mg/ml glucose (pH 7.4, 37° C.)) containing 0.2 mg/ml ascorbic acid and 10 μM pargyline. Plates containing cells with 200 μl of assay buffer were equilibrated for 10 minutes at 37° C. prior to addition of compounds. A stock solution of desipramine was prepared in DMSO (10 mM) and delivered to triplicate wells containing cells for a final test concentration of 1 μM. Data from these wells were used to define non-specific NE uptake (minimum NE uptake). Test compounds were prepared in DMSO (10 mM) and diluted in assay buffer according to test range (1 to 10,000 nM). Twenty-five microliters of assay buffer (maximum NE uptake) or test compound were added directly to triplicate wells containing cells in 200 μl of assay buffer. The cells in assay buffer with test compounds were incubated for 20 minutes at 37° C. To initiate the NE uptake, [^3H]NE diluted in assay buffer (120 nM final assay concentration) was delivered in 25 μl aliquots to each well and the plates were incubated for 5 minutes (37° C.). The reaction was terminated by decanting the supernatant from the plate. The plates containing cells were washed twice with 200 μl assay buffer (37° C.) to remove free radioligand. The plates were then inverted, left to dry for 2 minutes, then reinverted and air-dried for an additional 10 minutes. The cells were lysed in 25 μl of 0.25 N NaOH solution (4° C.), placed on a shake table and vigorously shaken for 5 minutes. After cell lysis, 75 μl of scintillation cocktail was added to each well and the plates were sealed with film tape. The plates were returned to the shake table and vigorously shaken for a minimum of 10 minutes to ensure adequate partitioning of organic and aqueous solutions. The plates were counted in a Wallac Microbeta counter (PerkinElmer) to collect the raw cpm data.
For each experiment, a data stream of cpm values collected from the Wallac Microbeta counter was downloaded to a Microsoft Excel statistical application program. Calculations of EC50 values were made using the transformed-both-sides logistic dose response program written by Wyeth Biometrics Department. The statistical program uses mean cpm values from wells representing maximum binding or uptake (assay buffer) and mean cpm values from wells representing minimum binding or uptake ((1 μM desipramine (hNET) or 1 μM paroxetine (hSERT)). Estimation of the EC50 value was completed on a log scale and the line was fit between the maximum and minimum binding or uptake values. All graphic data representation was generated by normalizing each data point to a mean percent based on the maximum and minimum binding or uptake values. The EC50 values reported from multiple experiments were calculated by pooling the raw data from each experiment and analyzing the pooled data as one experiment.

inhibition at 1 µM [%] | Structure (SMILES)
41 | CN1CCN(CC(c2cccc(Cl)c2)C2(O)CCC3CCCCC3C2)CC1 (centres unmarked) [Example 332, 2-[1-(3-chlorophenyl)-2-(4-methypiperazin-1-yl)ethyl]decahydronaphthalen-2-ol dihydrochloride]
71.7 | CC1CCC(O)(C(CN2CCNCC2)c2cccc(Cl)c2)CC1 (centres unmarked) [Example 334, 1-[1-(3-chlorophenyl)-2-piperazin-1-ylethyl]-4-methylcyclohexanol dihydrochloride]
49.5 | CC1CCC(O)(C(CN2CCN(C)CC2)c2cccc(Cl)c2)CC1 (centres unmarked) [Example 335, 1-[1-(3-chlorophenyl)-2-(4-methylpiperazin-1-yl)ethyl]-4-methylcyclohexanol dihydrochloride]
29 | CCC1CCC(O)(C(CN2CCN(C)CC2)c2cccc(Cl)c2)CC1 (centres unmarked) [Example 336, 1-[1-(3-chlorophenyl)-2-(4-methylpiperazin-1-yl)ethyl]-4-ethylcyclohexanol dihydrochloride]
